Laboratory results taken from PMC8322648, “Brevibacillin 2V Exerts Its Bactericidal Activity via Binding to Lipid II and Permeabilizing Cellular Membranes” (Frontiers in Microbiology, 2021).

Tests used:
[1] = tested on: membrane of Gram-positive bacteria; conditions: ref Yang et al., 2017; cited from earlier work
Excerpt: A vast number of bacterial non-ribosomally produced peptides (NRPs) have shown strong antimicrobial activity against pathogenic bacteria ([Cochrane et al., 2014]; [Cociancich et al., 2015]; [Hamamoto et al., 2015]; [Ling et al., 2015]; [Süssmuth and Mainz, 2017]). Lipo-tridecapeptides, a class of NRPs, show strong antimicrobial activity against Gram-positive pathogens, including antibiotic-resistant Staphylococcus aureus and Enterococcus spp. ([Barsby et al., 2001], [2006]; [Yang et al., 2016]; [Wu et al., 2019]; [Zhao et al., 2021]). However, many of these lipo-tridecapeptides have shown high ...

[2] = 31P solid-state NMR of Lipid II in liposomes; format: binding; conditions: combined ssNMR, CD and ITC assays
Experimental: Multi-lamellar vesicles of DOPC doped with 2 mol % Lys-Lipid II in buffer (20 mm HEPES, 100 mm NaCl, and pH = 8) were collected by centrifugation (60,000 × g) and loaded into 3.2 mm ssNMR rotors. For 3.2 mm rotors, we used 200 nmol of antibiotic with 100 nmol of Lipid II. The 1D ^31P ssNMR experiments were performed at 500 MHz (^1H frequency) magnetic field using 10 kHz magic angle spinning (MAS) at 270 K sample temperature.

Row | Substance | membrane permeabilization [1] | Lipid II binding site [2]
1 | Brevibacillin | can permeabilize the membrane of Gram-positive bacteria | –
2 | Brevibacillin 2V | – | binds to the GlcNAc-MurNAc moiety and/or the pentapeptide of Lipid II
